The source of these data is US10675271B2, “Clonidine and/or clonidine derivatives for use in the prevention and/or treatment of adverse side effects of chemotherapy” (ONXEO, priority 2015, dated 2020).

This test relates to patients with head and neck cancer. As for the experimental part:
A phase II, multicentre, randomised, double-blind, placebo-controlled study was performed to compare the efficacy of the mucoadhesive buccal tablets of Example 1D, comprising 50 μg of clonidine hydrochloride, applied once daily to that of placebo in the prevention and treatment of […] following radiotherapy in patients with head and neck cancer (suffering from a newly diagnosed squamous cell carcinoma of the oral cavity, oropharynx, hypopharynx or larynx). These patients received, within 15 weeks after curative surgery, a cumulative radiation dose of radiation ranging from 50 to 70 Gray in oral cavity, based on a daily dosing between 1.8 and 2.2 Gy, combined with platinum-based chemotherapy, based on a weekly or tri-weekly cycle. Clonidine was administered in the form of a mucoadhesive tablet that was applied into the mouth, on the upper gum, for about 30 seconds, after which it remained in place for several hours. The treatment with clonidine hydrochloride started from 1 to 3 days before radiotherapy until the end of radiotherapy, for up to 8 weeks. Patients were evaluated twice a week during the radiotherapy period, then one month after stop of radiotherapy.

[1] abbreviates: mucoadhesive buccal tablet of Example 1D, 50 μg clonidine hydrochloride once daily, up to 8 weeks, radiotherapy plus platinum-based chemotherapy, placebo 12.9%.

Under “additional identical experiment using 100 μg of clonidine hydrochloride”, `Cl.Clc1cccc(Cl)c1NC1=NCCN1` [Clonidine] showed an occurrence of nausea of 46.9%. For the same molecule, under setting [1], the “Cough (reported adverse side effect, occurrence)” value turned out to be 5.5% and the “Fatigue (reported adverse side effect, occurrence)” value is recorded as 9.1%. Further, the “Headache (reported adverse side effect, occurrence)” value (mucoadhesive buccal tablet of Example 1D, 50 μg clonidine hydrochloride once daily, up to 8 weeks, radiotherapy plus platinum-based chemotherapy, placebo 14.5%) is listed as 9.1%. Further, the “Diarrhoea (reported adverse side effect, occurrence)” value (mucoadhesive buccal tablet of Example 1D, 50 μg clonidine hydrochloride once daily, up to 8 weeks, radiotherapy plus platinum-based chemotherapy, placebo 21.0%) is 12.7%. Further, the “Asthenia (reported adverse side effect, occurrence)” value (mucoadhesive buccal tablet of Example 1D, 50 μg clonidine hydrochloride once daily, up to 8 weeks, radiotherapy plus platinum-based chemotherapy, placebo 24.2%) is given as 16.4%. For the setting “mucoadhesive buccal tablet of Example 1D, 50 μg clonidine hydrochloride once daily, up to 8 weeks, radiotherapy plus platinum-based chemotherapy, placebo 38.7%”, the “Vomiting (reported adverse side effect, occurrence)” value was 25.5%. The “Nausea (reported adverse side effect, occurrence)” value (mucoadhesive buccal tablet of Example 1D, 50 μg clonidine hydrochloride once daily, up to 8 weeks, radiotherapy plus platinum-based chemotherapy, placebo 71.0%) was 52.7%.
